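Briefly, cells in 96-well plates were exposed to five compound concentrations for 48 h, and endpoints were estimated by linear interpolation. GI50 marks 50% less growth. TGI is the concentration that stops growth completely.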
Each compound was assayed on BT-549 breast (assay: NCI anticancer screen, dose series, 48 h).
With `Cc1cn2c(/C=C3/C(=O)Nc4ccccc43)c(-c3ccc(Cl)cc3)nc2s1` the GI50 was 9.32 µM and the TGI was 19.3 µM. Work on `O=c1[nH]c2cc(Cl)ccc2n1C1CCN(CCCC(c2ccc(F)cc2)c2ccc(F)cc2)CC1` yielded a GI50 of 1.32 µM and a TGI of 2.92 µM. In the case of `C#CC(=O)Nc1cccc(Nc2nc3c(c(NCc4ccccc4)n2)CCCC3)c1`, the GI50 is reported as 0.0266 µM and the TGI is reported as 0.0776 µM. `COc1ccc(C2C(C#N)=C(N)OC3=C2COc2ccc(F)cc23)cc1OC` (stereo not drawn) gave a GI50 of 28.9 µM and a TGI greater than 100 µM. For `CCOC(=O)C1=C(C)N(N)C(=S)NC1c1ccc(C)cc1` (stereo not drawn), the TGI was 9.16 µM.

Each compound was assayed on SF-268 CNS (assay: NCI anticancer screen, dose series, 48 h).
`CC(=O)Oc1ccccc1C(=O)N=C1[Se]CCN1C(=O)c1ccccc1OC(C)=O` showed a GI50 of 0.483 µM and a TGI of 1.79 µM. For `O=S(O)CCCCSSCc1ccccc1CSSCCCCS(=O)O`, the TGI was 39.3 µM. `CCOC(=O)c1[nH]c(COC(C)=O)c(CCCOC(C)=O)c1CCCOC(C)=O` gave a TGI greater than 100 µM. In the case of `COc1cc(/C=C2\C(=O)Nc3ccc(F)cc32)cc(OC)c1OC`, the GI50 is reported as 28.3 µM and the TGI is reported as greater than 100 µM. Work on `C#C[C@]1(O)CC[C@H]2[C@@H]3CC=C4c5sc(Nc6ccccc6)nc5CC[C@]4(C)[C@H]3CC[C@@]21C` yielded a GI50 of 2.19 µM and a TGI of 10.1 µM. Work on `O=C(Nc1ccc([N+](=O)[O-])cc1)C1C(=O)C(=O)N(c2ccc([N+](=O)[O-])cc2)C1=O` (stereo not drawn) yielded a TGI greater than 100 µM. Compound `Cc1cn2c(/C=C3/C(=O)Nc4ccccc43)c(-c3ccc(Cl)cc3)nc2s1` has a GI50 of 7.41 µM and a TGI of 24.4 µM. Work on `O=C(CCC/C(CC(=O)c1ccc(Br)cc1)=N\O)Nc1ccccc1` yielded a TGI greater than 100 µM. `O=C(/C=C/c1c(O)ccc2ccccc12)c1ccc2ccccc2c1` was tested, and the TGI was greater than 100 µM. `O=c1[nH]c2cc(Cl)ccc2n1C1CCN(CCCC(c2ccc(F)cc2)c2ccc(F)cc2)CC1` showed a GI50 of 1.56 µM and a TGI of 2.98 µM. `CCOC(=O)C1N(S(=O)(=O)c2ccc(C)cc2)CCC12C(c1ccc(OC)cc1)NC1CCCCC12` (stereo not drawn) gave a TGI greater than 100 µM. With `COc1ccccc1NC(=O)C1=C(C)NC(C)=C(C(=O)Nc2ccccc2OC)C1c1ccc([N+](=O)[O-])cc1` the TGI was greater than 100 µM. `O=C(CSc1nnc(-c2ccccc2NC(=O)C(F)(F)F)c(=O)[nH]1)NC(=O)Nc1ccccc1` was tested, and the TGI was greater than 100 µM. With `COC(=O)/C=C/C1C(C(=O)OC)C2(C(=O)OC)CCC1(C(=O)OC)N2` (stereo not drawn) the TGI was greater than 100 µM. `CC(C)(C)N1CC2(CCCCC2)C1=O` was tested, and the TGI was greater than 100 µM. `C#CC(=O)Nc1cccc(Nc2nc3c(c(NCc4ccccc4)n2)CCCC3)c1` gave a GI50 of 0.0203 µM and a TGI of 0.0958 µM. `COc1ccc(C(=O)C(CO)Oc2ccccc2OC)cc1OC` (stereo not drawn) was tested, and the TGI was greater than 100 µM. `N#CC(/C(=N/NC(=O)C(=O)NN)C(=O)NC12CC3CC(CC(C3)C1)C2)c1ccccc1` (stereo not drawn) showed a TGI greater than 100 µM. `CC(C)(C)C(=O)/C=C/c1ccc(Oc2ccccc2)cc1` gave a TGI of 62.1 µM. For `CN=NN(C)C(=O)NC`, the TGI was greater than 100 µM. Work on `Nc1c(C(=O)N/N=C/c2ccc(-c3ccc(Cl)cc3)o2)cnn1-c1ccnc2c(C(F)(F)F)cccc12` yielded a GI50 greater than 100 µM and a TGI greater than 100 µM. `NC(N)=N/N=C/c1cc(Cl)cc(Cl)c1O` showed a TGI greater than 100 µM. Work on `CCCCCCCCCc1cc(=O)c2c(O)cccc2o1` yielded a TGI greater than 100 µM. `N#CC1Nc2ccccc2[C@@H](O)C1O` (stereo partly drawn) was tested, and the TGI was greater than 100 µM. For `CCOC(=O)CCc1c(C)c2c(OC(C)=O)cc(OC(C)=O)cc2oc1=O`, the TGI was 77.4 µM. `O=C(CN1CCCCC1)N1CCc2c([nH]c3ccccc23)C1c1cccnc1` (stereo not drawn) was tested, and the TGI was greater than 100 µM. `COC(=O)C12C3C4C5(C(=O)OC)C(C1C35C(=O)N(C(C)C)C(C)C)C42C(=O)N(C(C)C)C(C)C` (stereo not drawn) showed a TGI greater than 50 µM. In the case of `COc1ccc(C2C(C#N)=C(N)OC3=C2COc2ccc(F)cc23)cc1OC` (stereo not drawn), the GI50 is reported as 33.3 µM and the TGI is reported as greater than 100 µM. For `Cc1cc(C)n(CCNCCn2nc(C)cc2C)n1`, the TGI was greater than 100 µM. `O=C1CSC(Cc2nc3ccccc3[nH]2)=N1` was tested, and the TGI was greater than 31.6 µM. `O=C(/C=C/c1ccccc1)/C=C/c1ccccc1` showed a TGI of 66.4 µM. Compound `N#C/C(=C\c1ccc(O)c(O)c1)C(N)=O` has a TGI greater than 100 µM. In the case of `CCOC(=O)C1=C(C)N(N)C(=S)NC1c1ccc(C)cc1` (stereo not drawn), the GI50 is reported as 67 µM and the TGI is reported as greater than 100 µM. With `N#CC(C#N)=c1[nH]c2cccc3c2-c2c(cccc2c3=C(C#N)C#N)[nH]1` the TGI was greater than 100 µM.

What follows are compounds tested on T-47D breast (assay: NCI anticancer screen, dose series, 48 h).
In the case of `CC(=O)Oc1ccccc1C(=O)N=C1[Se]CCN1C(=O)c1ccccc1OC(C)=O`, the GI50 is reported as 1.84 µM and the TGI is reported as 5.06 µM. Compound `COc1cc(/C=C2\C(=O)Nc3ccc(F)cc32)cc(OC)c1OC` has a GI50 of 7.2 µM and a TGI greater than 100 µM. Compound `C#C[C@]1(O)CC[C@H]2[C@@H]3CC=C4c5sc(Nc6ccccc6)nc5CC[C@]4(C)[C@H]3CC[C@@]21C` has a GI50 of 2.05 µM and a TGI of 6.94 µM. Work on `O=c1[nH]c2cc(Cl)ccc2n1C1CCN(CCCC(c2ccc(F)cc2)c2ccc(F)cc2)CC1` yielded a GI50 of 1.83 µM and a TGI of 3.79 µM. Work on `C#CC(=O)Nc1cccc(Nc2nc3c(c(NCc4ccccc4)n2)CCCC3)c1` yielded a GI50 of 0.964 µM and a TGI of 3.7 µM. `Nc1c(C(=O)N/N=C/c2ccc(-c3ccc(Cl)cc3)o2)cnn1-c1ccnc2c(C(F)(F)F)cccc12` was tested, and the GI50 was 42.4 µM and the TGI was greater than 100 µM. Work on `NC(N)=N/N=C/c1cc(Cl)cc(Cl)c1O` yielded a TGI greater than 100 µM. Work on `N#CC1Nc2ccccc2[C@@H](O)C1O` (stereo partly drawn) yielded a TGI greater than 100 µM. `CCOC(=O)C1=C(C)N(N)C(=S)NC1c1ccc(C)cc1` (stereo not drawn) gave a GI50 of 23.1 µM and a TGI greater than 100 µM.

The compounds below were run on HS 578T breast (assay: NCI anticancer screen, dose series, 48 h).
For `CC(=O)Oc1ccccc1C(=O)N=C1[Se]CCN1C(=O)c1ccccc1OC(C)=O`, the GI50 was 0.507 µM and the TGI was 3.02 µM. `COc1cc(/C=C2\C(=O)Nc3ccc(F)cc32)cc(OC)c1OC` gave a GI50 of 30.4 µM and a TGI greater than 100 µM. Compound `C#C[C@]1(O)CC[C@H]2[C@@H]3CC=C4c5sc(Nc6ccccc6)nc5CC[C@]4(C)[C@H]3CC[C@@]21C` has a GI50 of 0.504 µM and a TGI of 5.23 µM. `Cc1cn2c(/C=C3/C(=O)Nc4ccccc43)c(-c3ccc(Cl)cc3)nc2s1` was tested, and the GI50 was 9.26 µM and the TGI was 31.9 µM. Compound `Nc1c(C(=O)N/N=C/c2ccc(-c3ccc(Cl)cc3)o2)cnn1-c1ccnc2c(C(F)(F)F)cccc12` has a GI50 greater than 100 µM and a TGI greater than 100 µM.

Reference: PubChem BioAssay (NCI)
